Laboratory results published in publication PMC6901909, “Synergy Pattern of Short Cationic Antimicrobial Peptides Against Multidrug-Resistant Pseudomonas aeruginosa” (Frontiers in Microbiology, 2019).
Converted amounts (≈) assume the structure as drawn. Where two headings read alike, the source gives them in different places. Blank lines part the entries; values can stand above or below the molecule they belong to.

Legend:
P. aeruginosa PA01-wt = assay: microbe, parasite or virus in culture; format: cell-based, Pseudomonas aeruginosa; conditions: for MIC: conventional antibiotics, 2–5 10^5 CFU/ml, at least three repeats (n = 3)
MDR P. aeruginosa PA 910 = assay: microbe, parasite or virus in culture; format: cell-based, Pseudomonas aeruginosa; conditions: for MIC: Pseudomonas aeruginosa
In short: (§1)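 Inoculum 2–5 10^5 CFU/ml in Mueller-Hinton broth, compounds twofold serially diluted, polypropylene microtiter plates. Strains are MDR isolates from clinical and municipal waste water.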

MDR P. aeruginosa PA253 = assay: microbe, parasite or virus in culture; format: cell-based, Pseudomonas aeruginosa; conditions: for MIC: conventional antibiotics, 2–5 10^5 CFU/ml, at least three repeats (n = 3)
In short: as §1

MDR P. aeruginosa PA 919 = assay: microbe, parasite or virus in culture; format: cell-based, Pseudomonas aeruginosa; conditions: for MIC: conventional antibiotics, 2–5 10^5 CFU/ml, at least three repeats (n = 3)
In short: as §1

[1] = system: MDR isolate of P. aeruginosa (PA 910); conditions: checkerboard, MHb, for the Indopt versions 1/8 MHb, 2–5 × 10^5 CFU/ml, 37°C, 18 h, visual, determined once (n = 1)
Experimental: The checkerboard assay was used to determine the fractional inhibitory concentrations (FICs), following the protocol described in Koneman’s Color Atlas and Textbook of Diagnostic Microbiology ([Winn et al., 2006]). Briefly, combinations of peptides and antibiotics were prepared in 96-well plates (polypropylene, Corning) in a twofold dilution series. After the addition of a log-phase bacterial inoculum of 2–5 × 10^5 CFU/ml, plates were incubated at 37°C for 18 h. The FICs were determined by visual inspection and the effects of the combinations were determined using the FICs. The FIC was computed by adding two partial FIC values, FICA—the MIC of drug A, tested in combination with drug B divided by the MIC of drug A, tested alone and FICB—the MIC of drug B, tested in combination with drug A divided by the MIC of drug B, tested alone [FIC = FICA + FICB = (MICAB/MICA) + (MICBA/MICB), where MICA and MICB are the MICs of drugs A and B alone, respectively, and MICAB and MICBA are the MIC concentrations of the drugs in combination]. Here we use the European Committee for Antimicrobial Susceptibility Testing (EUCAST) definition, which is very similar to the definition provided by [Odds, 2003], except Odds define additive effects when FIC values are between 0.5 and 1 ([European Committee for Antimicrobial Susceptibility Testing [EUCAST] of the European Society of Clinical Microbiology and Infectious Diseases [ESCMID], 2000]; [Odds, 2003]). The combination of peptide (drug A) and antibiotics (drug B) was defined as synergistic if the FIC was ≤ 0.5, indifferent if the FIC was > 0.5 but ≤ 4.0 and antagonistic if the FIC was > 4.0.

MDR P. aeruginosa PA 927 = assay: microbe, parasite or virus in culture; format: cell-based, Pseudomonas aeruginosa; conditions: conventional antibiotics, microdilution, Mueller-Hinton broth, 2–5 10^5 CFU/ml, 18 h at 37°C, read visually, at least three repeats (n = 3)
In short: as §1

MDR P. aeruginosa PA 915 = assay: microbe, parasite or virus in culture; format: cell-based, Pseudomonas aeruginosa; conditions: conventional antibiotics, microdilution, Mueller-Hinton broth, 2–5 10^5 CFU/ml, 18 h at 37°C, read visually, at least three repeats (n = 3); for MIC: Pseudomonas aeruginosa
In short: as §1

MDR P. aeruginosa PA 923 = assay: microbe, parasite or virus in culture; format: cell-based, Pseudomonas aeruginosa; conditions: conventional antibiotics, microdilution, Mueller-Hinton broth, 2–5 10^5 CFU/ml, 18 h at 37°C, read visually, at least three repeats (n = 3)
In short: as §1

[2] = four classes defined from the MIC values, 1 strong to 4 weak
[3] = short AMPs, microdilution, Mueller-Hinton broth, 18 h at 37°C, read visually, triplicate (n = 3)
[4] = microdilution, Mueller-Hinton broth, 18 h at 37°C, read visually
[5] = Pseudomonas aeruginosa, PA01WT, microdilution, Mueller-Hinton broth, 18 h at 37°C, read visually
[6] = 18 h, antibiotic alone, as listed in the FIC table, read-out: MIC against PA910 in μM (antibiotics, head of Table 4)
[7] = conventional antibiotics, microdilution, Mueller-Hinton broth, 2–5 10^5 CFU/ml, 18 h at 37°C, read visually, at least three repeats (n = 3), read-out: MIC PA 910
[8] = Pseudomonas aeruginosa, microdilution, Mueller-Hinton broth, 18 h at 37°C, read visually

Molecule: CC[C@H](C)[C@H](NC(=O)[C@H](CCCCN)NC(=O)[C@H](CCC(=O)O)NC(=O)[C@H](CCCCN)NC(=O)[C@H](CO)NC(=O)[C@H](CCCCN)NC(=O)[C@H](CCCNC(=N)N)NC(=O)[C@H](Cc1ccccc1)NC(=O)[C@H](Cc1ccccc1)NC(=O)[C@H](CC(=O)O)NC(=O)CNC(=O)[C@H](CC(C)C)NC(=O)[C@@H](N)CC(C)C)C(=O)NCC(=O)N[C@@H](CCCCN)C(=O)N[C@@H](CCC(=O)O)C(=O)N[C@@H](Cc1ccccc1)C(=O)N[C@@H](CCCCN)C(=O)N[C@@H](CCCNC(=N)N)C(=O)N[C@H](C(=O)N[C@H](C(=O)N[C@@H](CCC(N)=O)C(=O)N[C@@H](CCCNC(=N)N)C(=O)N[C@H](C(=O)N[C@@H](CCCCN)C(=O)N[C@@H](CC(=O)O)C(=O)N[C@@H](Cc1ccccc1)C(=O)N[C@@H](CC(C)C)C(=O)N[C@@H](CCCNC(=N)N)C(=O)N[C@@H](CC(N)=O)C(=O)N[C@@H](CC(C)C)C(=O)N[C@H](C(=O)N1CCC[C@H]1C(=O)N[C@@H](CCCNC(=N)N)C(=O)N[C@H](C(=O)N[C@@H](CCC(=O)O)C(=O)N[C@@H](CO)C(=O)O)[C@@H](C)O)C(C)C)[C@@H](C)CC)C(C)C)[C@@H](C)CC [LL37]
- activity class by MIC (number in brackets), PA01 wt (P. aeruginosa PA01-wt; [2]): 3 (class 3 includes peptides with MIC values between 16 and 32 μM)
- MIC against PA01 wt (P. aeruginosa PA01-wt; [3]): 16 µM (≈ 71.9 µg/mL)
- activity class by MIC (number in brackets), PA910 (MDR P. aeruginosa PA 910; [2]): 4 (the least active class includes peptides with MIC values larger than 32 μM)
- MIC against PA910 in μM (peptides, Table 4) (MDR P. aeruginosa PA 910; peptide alone, as listed in the FIC table): 64 µM
- MIC against MDR isolates of PA, PA910 (MDR P. aeruginosa PA 910; [3]): 64 µM
- activity class by MIC (number in brackets), PA253 (MDR P. aeruginosa PA253; [2]): 4 (the least active class includes peptides with MIC values larger than 32 μM)
- MIC against MDR isolates of PA, PA253 (MDR P. aeruginosa PA253; [3]): 64 µM
- activity class by MIC (number in brackets), PA919 (MDR P. aeruginosa PA 919; [2]): 3 (class 3 includes peptides with MIC values between 16 and 32 μM)
- MIC against MDR isolates of PA, PA919 (MDR P. aeruginosa PA 919; [3]): 16 µM
- FIC, combination with AMI ([1]; peptide + amikacin): 2
- FIC, combination with CEF ([1]; peptide + cefepime): 2
- FIC, combination with CET ([1]; peptide + ceftazidime): 0.75
- FIC, combination with CIP ([1]; peptide + ciprofloxacin): 0.51
- FIC, combination with ERY ([1]; peptide + erythromycin): 0.51
- FIC, combination with GEN ([1]; peptide + gentamycin): 2
- FIC, combination with IMI ([1]; peptide + imipenem): 1
- FIC, combination with KAN ([1]; peptide + kanamycin): 1
- FIC, combination with MER ([1]; peptide + meropenem): 0.51
- FIC, combination with PIP ([1]; peptide + piperacillin): 2
- FIC, combination with PMB ([1]; peptide + polymyxin B): 0.63
- FIC, combination with TET ([1]; peptide + tetracycline): 0.5
- FIC, combination with TOB ([1]; peptide + tobramycin): 2

Molecule: Kanamycin
- MIC (MDR P. aeruginosa PA 927): 128 µM
- MIC (P. aeruginosa PA01-wt; [4]): 64 µM
- MIC against PA910 in μM (antibiotics, head of Table 4) (MDR P. aeruginosa PA 910; antibiotic alone, as listed in the FIC table): 128 to 256 µM
- MIC PA 910 (MDR P. aeruginosa PA 910; conventional antibiotics, microdilution, Mueller-Hinton broth, 2–5 10^5 CFU/ml, 18 h at 37°C, read visually, at least three repeats (n = 3)): 128 to 256 µM
- MIC PA 915 (MDR P. aeruginosa PA 915): 256 to 512 µM
- MIC (MDR P. aeruginosa PA253; [4]): >512 µM
- MIC (MDR P. aeruginosa PA 919; [4]): 128 µM
- MIC (MDR P. aeruginosa PA 923): 256 µM

- MIC (MDR P. aeruginosa PA 927; Pseudomonas aeruginosa): 4 µM (≈ 2.34 µg/mL)
- MIC (P. aeruginosa PA01-wt; [5]): 1 µM (≈ 0.586 µg/mL)
- MIC (MDR P. aeruginosa PA 910; [6]): 2 to 4 µM
- MIC (MDR P. aeruginosa PA 910; [7]): 2 to 4 µM (≈ 1.17 to 2.34 µg/mL)
- MIC (MDR P. aeruginosa PA 915): 4 µM (≈ 2.34 µg/mL)
- MIC (MDR P. aeruginosa PA253; [8]): 8 to 16 µM (≈ 4.68 to 9.37 µg/mL)
- MIC (MDR P. aeruginosa PA 919; [8]): 32 µM (≈ 18.7 µg/mL)
- MIC (MDR P. aeruginosa PA 923; Pseudomonas aeruginosa): 4 µM (≈ 2.34 µg/mL)
Molecule: NCC[C@H](O)C(=O)N[C@@H]1C[C@H](N)[C@@H](O[C@H]2O[C@H](CN)[C@@H](O)[C@H](O)[C@H]2O)[C@H](O)[C@H]1O[C@H]1O[C@H](CO)[C@@H](O)[C@H](N)[C@H]1O [Amikacin]

- MIC (MDR P. aeruginosa PA 927; Pseudomonas aeruginosa): 256 µM (≈ 132 µg/mL)
- MIC (P. aeruginosa PA01-wt; [5]): 4 µM (≈ 2.07 µg/mL)
- MIC (MDR P. aeruginosa PA 910; [6]): 64 to 128 µM
- MIC (MDR P. aeruginosa PA 910; [7]): 64 to 128 µM (≈ 33.1 to 66.2 µg/mL)
- MIC (MDR P. aeruginosa PA 915): > 256 µM
- MIC (MDR P. aeruginosa PA253; [8]): > 256 µM
- MIC (MDR P. aeruginosa PA 919; [8]): 64 µM (≈ 33.1 µg/mL)
- MIC (MDR P. aeruginosa PA 923; Pseudomonas aeruginosa): 128 µM (≈ 66.2 µg/mL)
Molecule: CCN1CCN(C(=O)N[C@@H](C(=O)N[C@@H]2C(=O)N3[C@@H]2SC(C)(C)[C@@H]3C(=O)O)c2ccccc2)C(=O)C1=O [Piperacillin]
